Laboratory results as given in patent publication US20220088131A1, “COMPOSITIONS AND METHODS RELATING TO C5L2” (King's College London, priority 2013, published 2022).

Experiments:
[1] = test system: CD14+ monocytes; test: Pro-inflammatory cytokine release by monocytes (CBA); assay type: cell-based, human; conditions: resting and Flagellin-stimulated monocytes; 36 hours; dRA 7 μM, PMX53 10 μM; FIG. 9
Protocol: FIG. 9. C5L2 blockade induces pro-inflammatory cytokine release by human monocytes. CD14+ monocytes (2.5×10^5) were cultured for 36 hours and supernatants assayed for cytokines using CBA. Monocytes were treated with either C5aR/C5L2 double receptor antagonist (dRA; 7 μM), C5aR antagonist (PMX53; 10 μM) or control (non-treated). The effect of antagonist treatment was assessed on non-activated monocytes (white bars) as well as monocytes activated with 1 μg/ml of either Flagellin (light grey bars) or 100 ng/ml LPS (dark grey bars). Data represent n=4 experiments with SEM indicated. Statistical testing was not conducted as insufficient experimental repeats were performed to assume normal distribution. Asterisk denotes that the median value was 10,400 pg/ml.
Human blood was obtained from healthy volunteers following ethical guidelines set by Kings College London (KCL) ethics committee (REC: 09/H0804/72). PBMCs were isolated by density centrifugation (Ficoll-Paque PLUS; GE healthcare, Uppsala, Sweden). […]
The Th1/Th2/Th17 Cytometric Bead Array (BD Bioscience) was used to quantify cytokine production by CD4^+ T cells and monocytes following 12 or 36 h culture under distinct activation conditions. […] IL-1β amounts secreted into the cell media were measured by ELISA, according to the manufacturer's protocol (R&D Systems, Abingdon, UK).

[2] = test system: human CD4+ T cells; test: Cytokine secretion by CD4+ T cells with C5aR or C5aR/C5L2 blockade (Cytometric Bead Array); assay type: cell-based
Text: Human blood was obtained from healthy volunteers following ethical guidelines set by Kings College London (KCL) ethics committee (REC: 09/H0804/72). PBMCs were isolated by density centrifugation (Ficoll-Paque PLUS; GE healthcare, Uppsala, Sweden). Cell subsets were isolated by magnetic separation following manufacturer's instructions (Miltenyi Biotec, Auburn, Calif.). Monocytes were positively selected using anti-CD14 microbeads (average purity 97%) and CD4^+ T cells were isolated from the CD14-negative fraction using anti-CD4 microbeads (average purity 98%). Alternatively, CD4^+ T cells were isolated from purified PBMCs by cell sorting after staining with antibodies to CD14 and CD4 and CD3.
(§1) CD4^+ T cells and CD14^+ monocytes were cultured in medium (RPMI-1640 medium (Sigma-Alich, Suffolk, UK), supplemented with 1% GlutaMAX, 1% penicillin/streptomycin (both Life Technologies, Paisley, UK) and 10% FBS (HyClone Laboratories, Logan, Utah). In the case of T cells media was supplemented with 25 U/ml IL-2 (Sigma-Aldrich; or with concentrations indicated in figure legends). CD4^+ T cells (2.5×10^5) were cultured alone or together with plate-bound anti-CD3 (OKT3, Biolegend, San Diego, Calif.), anti-CD3 and anti-CD28 (CD28.2, BD Pharmingen, San Jose, Calif.) or anti-CD3 and anti-CD46 (TRA-2-10, provided by John Atkinson, Washington University, St Louis, Mo.) all immobilised onto 48-well plates at concentrations of 2 μg/ml PBS overnight at 4° C. Monocytes (2.5×10^5) were cultured either alone or in the presence of LPS or Flagellin (1 μg/ml). […] Cells were cultured at 37° C. and 5% CO2 and cytokine secetion assessed at 12, 24 or 36 h post activation.
The Th1/Th2/Th17 Cytometric Bead Array (BD Bioscience) was used to quantify cytokine production by CD4^+ T cells and monocytes following 12 or 36 h culture under distinct activation conditions. Samples were processed following manufacturer's instructions and acquired using BD FACScan. IL-1β amounts secreted into the cell media were measured by ELISA, according to the manufacturer's protocol (R&D Systems, Abingdon, UK).

[3] = test system: human CD4+ T cells; test: Rescue of CPM inhibitor-mediated increase in IFN-γ production by CD4+ T cells; assay type: cell-based; conditions: 24 h post activation, FIG. 13
Protocol: FIG. 13. Serum-purified C5adesArg can partially rescue carboxypeptidase M inhibitor (CPM)-mediated increase in IFN-γ production by CD4+ T cells. Purified human CD4+ T cells were activated with depicted immobilized antibodies in media, or in media with the addition of a CPM inhibitor with or without either serum-purified C5a or C5adesArg. IFN-γ production by cells was assessed 24 h post activation using the CBA Cytokine Bead Array ([…]). Data (±SD) are from three experiments (n=3). *, p<0.05; (student's paired t-test).
The ability of serum-purified C5adesArg to rescue carboxypeptidase M inhibitor (CPM)-mediated increase in IFN-γ production by CD4+ T cells was determined. Purified human CD4^+ T cells were activated in media, or in media with the addition of a CPM inhibitor with or without either serum-purified C5a or C5adesArg. IFN-γ production by cells was assessed 24 h post activation using the CBA Cytokine Bead Array. […] However, the increase in IFN-γ production was markedly lower when C5adesArg was present than when C5a was present and also markedly lower than in the absence of both C5a and C5adesArg. Addition of purified C5adesArg but not C5a reduced CPM inhibitor-induced increase in IFN-γ by about 25%.

[4] = test system: human CD4+ T cells; test: Effect of carboxypeptidase M inhibition on cytokine secretion in CD4+ T cells (CBA); assay type: cell-based; conditions: resting and activated CD4+ T cells, 36 hours
Protocol: FIG. 12A. Effect of carboxypeptidase M (CPM) inhibition on cytokine secretion in resting and activated CD4+ T cells. CD4+ T cells (2.5×10^5) were activated as depicted for 36 hours and supernatants assayed for Th1/2/17 cytokines using CBA. Cells were treated with either C5aR/C5L2 double receptor antagonist (dRA; 7 μM), C5aR antagonist (PMX53; 10 μM), with or without a carboxypetidase M inhibitor (CPMi) or activated in media without any addition as a first control (non-treated, NT) or with a control peptide that lacks activity towards C5a and C5L2 as a second control (Control). The effect of antagonist treatment was assessed in non-activated T cells (white bars), as well as T cells activated with 0.25 μg plate-bound anti-CD3 (light grey bars), anti-CD3/28 (dark grey bars) or anti-CD3/46 (black bars). Data represent n=4 with standard error of the mean indicated. Bar graphs showing effect of CPMi on secretion of IL-17, IFN-γ, and TNFα by resting and activated CD4+ T cells. FIG. 12B. […]
as §1, with “C.” for “C. Monocytes (2.5×10^5) were cultured either alone or in the presence of LPS or Flagellin (1 μg/ml).”
The Th1/Th2/Th17 Cytometric Bead Array (BD Bioscience) was used to quantify cytokine production by CD4^+ T cells and monocytes following 12 or 36 h culture under distinct activation conditions. […]

[5] = activated CD4+ T cells, dRA 7 μM, PMX53 10 μM, FIG. 6

PMX53 [reference compound] was tested, and the “secretion of IL-6” value [1] was “no effect”, the “secretion of IFN-γ” value [2, 5] was “no effect” and the “secretion of IL-17” value [2, 5] was “no effect”. The “secretion of IL-6” value ([2]; resting and activated CD4+ T cells, FIG. 7A) was “no effect”.

In the case of “CPMi: carboxypetidase (CP) A and B inhibitor, which also effectively inhibits CPM (Sigma CO279; 25 nM) (QQHADPICNKPCKTHDDCSGAWFCQACWNSARTCGPYVG)”, the IFN-γ production ([3]; all activation conditions) is reported as “increased IFN-γ production”, the “effect on IFN-γ secretion” value ([4]; FIG. 12A) is reported as “may also be present” and the “secretion of IL-17” value ([4]; control cells, untreated cells and with C5aR antagonist, FIG. 12A) is reported as “increased secretion”. The “secretion of IL-6” value ([4]; control cells, untreated cells and with C5aR antagonist, FIG. 12B) was “increased secretion”.

B1: C5adesArg: serum-purified C5a lacking the C-terminal Arg; naturally occurring agonist of C5L2 (protein)
chain: TLQKKIEEIAAKYKHSVVKKCCYDGACVNNDETCEQRAARISLGPRCIKAFTECCVVASQLRANISHKDMQLG
With B1 the “reduction of CPM inhibitor-induced increase in IFN-γ” value ([3]; serum-purified protein added with CPM inhibitor) was “about 25%”.
